Measured values taken from patent publication US10519154B2, “7-substituted 1-pyridyl-naphthyridine-3-carboxylic acid amides and use thereof” (Bayer Pharma Aktiengesellschaft, priority 2016, dated 2019).

Columns and labels:
human M2 receptor [1] = target: T1, human M2 receptor (Homo sapiens, UniProt P08172); experiment: Functional M2-GIRK1/4 activation test: positive cooperativity (alpha factor); conditions: shift of acetylcholine dose-response curve (Allosteric EC50 shift); CHO-DUKX-M2-GIRK cells
T1 sequence (P08172 1-466): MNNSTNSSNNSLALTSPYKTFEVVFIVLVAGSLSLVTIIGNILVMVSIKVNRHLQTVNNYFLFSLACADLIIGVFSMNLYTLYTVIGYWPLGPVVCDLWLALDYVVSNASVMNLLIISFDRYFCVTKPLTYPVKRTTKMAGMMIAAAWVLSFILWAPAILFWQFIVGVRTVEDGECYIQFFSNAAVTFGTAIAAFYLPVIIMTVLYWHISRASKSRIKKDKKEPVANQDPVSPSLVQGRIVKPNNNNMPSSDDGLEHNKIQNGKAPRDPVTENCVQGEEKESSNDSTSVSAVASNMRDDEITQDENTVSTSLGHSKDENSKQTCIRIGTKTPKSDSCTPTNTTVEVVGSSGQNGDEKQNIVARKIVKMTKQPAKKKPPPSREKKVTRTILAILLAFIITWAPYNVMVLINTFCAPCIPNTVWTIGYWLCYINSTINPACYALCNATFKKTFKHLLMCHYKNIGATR
Text: The binding of orthosteric agonists (endogenous ligand: acetylcholine) to the M2 receptor leads to receptor activation or a change in conformation of the receptor in the manner of a shift in equilibrium in favor of the active receptor conformation.
The agonist-induced change in conformation of the M2 receptor results in a Gαi protein activation. […] Under physiological conditions, the result is then a selective efflux of potassium from the cell along the electrochemical gradient. […] The extent of hyperpolarization can therefore be regarded as a measure of the activation of the M2 receptor.
The test cell used is a recombinant CHO-DUKX cell line which has been stably transfected with cDNA coding for the human M2 receptor and with cDNA coding for both GIRK1/4 subunits (CHO-DUKX-M2-GIRK). The transmembrane potential, or the relative changes in the transmembrane potential as a function of substance addition or M2 activation, is determined by means of a voltage-sensitive dye (FLIPR Membrane Potential Assay Kit Blue, Molecular Devices #R8034) and the measurement of cell fluorescence using a proprietary fluorescence imaging instrument.
In accordance with the desired test concentrations, the substances were pre-diluted in loading buffer (see above).
The sowing medium consisted of MEM alpha medium (supplemented with 5% FCS, 2% Glutamax, no genticin).
For the particular measurement, the medium was removed and the cells were laden with the voltage-sensitive dye for at least 6 min at room temperature (30 μl of loading buffer per 384-well). This was followed, in a first measurement, by the determination of the resting transmembrane potential for a period of 5 sec in 1 sec increments. Thereafter, 10 μl in each case of the test substances diluted in loading buffer are added, followed by a second measurement to determine the transmembrane potential for a period of 50 sec in 1 sec increments.
Finally, the cells are admixed with 10 μl of agonist solution (acetylcholine dissolved in loading buffer). In contrast to the EC50 determination of the test substances (see B-1.1), however, this is not done using one acetylcholine concentration; instead, every concentration of the test substance is combined with an acetylcholine 8-point dose-response curve. […] The M2-mediated GIRK1/4 activation or hyperpolarization is then monitored in a third measurement over a period of 60 sec in 1 sec increments. The shift in the acetylcholine dose-response curve in the presence of increasing concentrations of the test substance is analyzed and quantified by means of GraphPad PRISM (Allosteric EC50 shift). […] Positive cooperativity is the hallmark of a positive allosteric modulator. […] The greater the magnitude of the cc value, the greater the extent of cooperativity between orthosteric and allosteric.

human M2 receptor [2] = target: T1, human M2 receptor; experiment: Functional M2-GIRK1/4 activation test: allosteric potency (EC50) and efficiency; conditions: for EC50: Receptor activity EC50, CHO-DUKX-M2-GIRK cells, acetylcholine at EC20, in some cases mean of two or more determinations; for Emax: read-out: Efficiency, boosting of the acetylcholine effect at EC20 acetylcholine concentration

Cooperativity (alpha factor) (human M2 receptor [1]) | EC50 (human M2 receptor [2]) | Emax (human M2 receptor [2]; CHO-DUKX-M2-GIRK cells) | Efficiency (human M2 receptor [2]; boosting of the acetylcholine effect at EC20 acetylcholine concentration, CHO-DUKX-M2-GIRK cells) | SMILES
68 | 34 nM | 100% | – | O=C(NC(C(F)(F)F)C(F)(F)F)c1cn(-c2ncc(F)cc2F)c2nc(N3C[C@@H](O)[C@H](O)C3)ccc2c1=O [Example 56, 1-(3,5-Difluoropyridin-2-yl)-7-[(3R,4R)-3,4-dihydroxypyrrolidin-1-yl]-N-(1,1,1,3,3,3-hexafluoropropan-2-yl)-4-oxo-1,4-dihydro-1,8-naphthyridine-3-carboxamide]
36 | 53 nM | 97% | – | O=C(Nc1c(Cl)cccc1Cl)c1cn(-c2ncc(F)cc2F)c2nc(N3C[C@@H](O)[C@H](O)C3)ccc2c1=O [Example 67, N-(2,6-Dichlorophenyl)-1-(3,5-difluoropyridin-2-yl)-7-[(3R,4R)-3,4-dihydroxypyrrolidin-1-yl]-4-oxo-1,4-dihydro-1,8-naphthyridine-3-carboxamide]
38 | 86 nM | – | 91.50% | CCC(COC(F)(F)F)NC(=O)c1cn(-c2ncc(F)cc2F)c2nc(N3C[C@@H](O)CC3=O)ccc2c1=O (single isomer, unassigned) [Example 19]
24 | 111 nM | 88% | – | CCC(COC(F)(F)F)NC(=O)c1cn(-c2ncc(F)cc2F)c2nc(N3C[C@@H](O)CC3=O)ccc2c1=O (mixture of isomers) [Example 17, 1-(3,5-Difluoropyridin-2-yl)-7-[(4S)-4-hydroxy-2-oxopyrrolidin-1-yl]-4-oxo-N-[1-(trifluoromethoxy)butan-2-yl]-1,4-dihydro-1,8-naphthyridine-3-carboxamide]
